pIC50: −log10 of the molar value.
How the values were obtained:
[1] = test system: HL-60; experiment: Cytotoxicity against human HL60 cells by MTS assay; format: functional, cell-based
[2] = test system: Calf thymus DNA; experiment: Displacement of ethidium bromide from calf thymus DNA by fluorometric assay; format: nucleic-acid assay; conditions: Bos taurus
[3] = test system: HL-60; experiment: Growth inhibition of human HL60 cells; format: functional

| Compound | pIC50 [1] | also measured |
| --- | --- | --- |
| CN(C)CCNC(=O)c1cccc2c(NCCCCCCNS(=O)(=O)c3cccc4cccnc34)c3ccccc3nc12 | 4.80 | – |
| CN(C)CCNC(=O)c1ccc2c(NCCCCCCNS(=O)(=O)c3cccc4c(N(C)C)cccc34)c3ccccc3nc2c1 | 4.57 | – |
| CN(C)CCNC(=O)c1cccc2c(NCCCCCCNC(=O)c3ccc4ccccc4n3)c3ccccc3nc12 | 4.65 | – |
| CN(C)CCNC(=O)c1ccc2c(NCCCCCCNC(=O)c3ccc4ccccc4n3)c3ccccc3nc2c1 | 4.51 | – |
| CN(C)CCNC(=O)c1cccc2c(NCCCCCCNC(=O)c3cccc4ccccc34)c3ccccc3nc12 | 5.46 | – |
| CN(C)CCNC(=O)c1cccc2c(NCCCCCCNS(=O)(=O)c3cccc4c(N(C)C)cccc34)c3ccccc3nc12 | 5.68 | – |
| CN(C)CCNC(=O)c1ccc2c(NCCCCCCN)c3ccccc3nc2c1 | 4.42 | Kapp [2]: 9.83 ×10⁶ /M |
| Nc1c2ccccc2nc2ccccc12 [AMINACRINE] | – | GI50 [3]: 2 µM; Kapp [2]: 1.8 ×10⁶ /M; logKA [2]: 6.26 |
| CN(C)CCNC(=O)c1ccc2c(NCCCCCCNC(=O)c3cccc4ccccc34)c3ccccc3nc2c1 | 4.23 | – |
| CN(C)CCNC(=O)c1cccc2c(NCCCCCCN)c3ccccc3nc12 | 6.35 | Kapp [2]: 3.1 ×10⁷ /M |
| CN(C)CCNC(=O)c1ccc2c(NCCCCCCNS(=O)(=O)c3cccc4cccnc34)c3ccccc3nc2c1 | 4.45 | – |

Reference: ChEMBL document CHEMBL1287705, “Design and synthesis of threading intercalators to target DNA” (Bioorg Med Chem Lett, 2010)
